The values below are quoted from earlier work in patent publication EP4635967A1, “OLIGONUCLEOTIDE COMPRISING LIPOPHILIC MONOMER AND USE THEREOF IN NON-LIVER DELIVERY” (Tuojie Biotech (Shanghai) Co., Ltd., priority 2022, dated 2024).

For the series the following is noted: octanol-water partition coefficient, example values in the definition of lipophilic moiety.

With `NCCCCCCO` [6-aminohexanol], the logKow entry was “about 0.7”. As to `CC(C)CCC[C@@H](C)[C@H]1CC[C@H]2[C@@H]3CC=C4C[C@@H](OC(=O)NCCCCCCO)CC[C@]4(C)[C@H]3CC[C@]12C` [cholesteryl N-(hexan-6-ol)carbamate], the logKow is 10.7.
